Data as given in article PMC7156458, “Synthetic biology based construction of biological activity-related library of fungal decalin-containing diterpenoid pyrones” (Nature Communications, 2020).

Biological target: Aβ42 (Homo sapiens, UniProt P05067)
Test: Th-T (thioflavin-T) assay of Aβ42 aggregation
Assay type: biochemical
Conditions: for Th-T assay plate reading, mean of three wells (Supplementary Fig. 47): source data, Ab alone and No Ab as controls

Aβ42, sequence (P05067 672-713): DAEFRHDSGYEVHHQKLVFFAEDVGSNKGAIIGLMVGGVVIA

C=C1CCC2C(C)(CC(=O)C=C(C)C)C(O)CCC2(C)C1Cc1c(OC)oc(C)c(C)c1=O (centres unmarked) [Compound 25]
Th-T fluorescence, mean of three wells (Aβ42 aggregation time course, reading M117): 3.606
Th-T fluorescence, mean of three wells (Aβ42 aggregation time course, reading M118): 3.615
Th-T fluorescence, mean of three wells (Aβ42 aggregation time course, reading M119): 3.596
Th-T fluorescence, mean of three wells (Aβ42 aggregation time course, reading M120): 3.613
Th-T fluorescence, mean of three wells (Aβ42 aggregation time course, reading M121): 3.583
Th-T fluorescence, mean of three wells (Aβ42 aggregation time course, reading M122): 3.577
Th-T fluorescence, mean of three wells (Aβ42 aggregation time course, reading M123): 3.546
Th-T fluorescence, mean of three wells (Aβ42 aggregation time course, reading M124): 3.572
Th-T fluorescence, mean of three wells (Aβ42 aggregation time course, reading M125): 3.555
Th-T fluorescence, mean of three wells (Aβ42 aggregation time course, reading M126): 3.529
Th-T fluorescence, mean of three wells (Aβ42 aggregation time course, reading M127): 3.54
Th-T fluorescence, mean of three wells (Aβ42 aggregation time course, reading M128): 3.504
Th-T fluorescence, mean of three wells (Aβ42 aggregation time course, reading M129): 3.564
Th-T fluorescence, mean of three wells (Aβ42 aggregation time course, reading M130): 3.54
Th-T fluorescence, mean of three wells (Aβ42 aggregation time course, reading M131): 3.5322
Th-T fluorescence, mean of three wells (Aβ42 aggregation time course, reading M132): 3.554
Th-T fluorescence, mean of three wells (Aβ42 aggregation time course, reading M133): 3.505
Th-T fluorescence, mean of three wells (Aβ42 aggregation time course, reading M134): 3.525
Th-T fluorescence, mean of three wells (Aβ42 aggregation time course, reading M135): 3.538
Th-T fluorescence, mean of three wells (Aβ42 aggregation time course, reading M136): 3.5303
Th-T fluorescence, mean of three wells (Supplementary Fig. 47, reading M137): 3.5763
Th-T fluorescence, mean of three wells (Supplementary Fig. 47, reading M138): 3.512
Th-T fluorescence, mean of three wells (Supplementary Fig. 47, reading M139): 3.524
Th-T fluorescence, mean of three wells (Supplementary Fig. 47, reading M140): 3.521
Th-T fluorescence, mean of three wells (Supplementary Fig. 47, reading M141): 3.497
Th-T fluorescence, mean of three wells (Supplementary Fig. 47, reading M142): 3.5241
Th-T fluorescence, mean of three wells (Supplementary Fig. 47, reading M143): 3.477
Th-T fluorescence, mean of three wells (Supplementary Fig. 47, reading M144): 3.474
Th-T fluorescence, mean of three wells (Supplementary Fig. 47, reading M145): 3.514
Th-T fluorescence, mean of three wells (Supplementary Fig. 47 source data, measurement M37 of time course): 3.725
Th-T fluorescence, mean of three wells (Supplementary Fig. 47 source data, measurement M38 of time course): 3.672
Th-T fluorescence, mean of three wells (Supplementary Fig. 47 source data, measurement M39 of time course): 3.686
Th-T fluorescence, mean of three wells (Supplementary Fig. 47 source data, measurement M40 of time course): 3.696
Th-T fluorescence, mean of three wells (Supplementary Fig. 47 source data, measurement M41 of time course): 3.723
Th-T fluorescence, mean of three wells (Supplementary Fig. 47 source data, measurement M42 of time course): 3.705
Th-T fluorescence, mean of three wells (Supplementary Fig. 47 source data, measurement M43 of time course): 3.698
Th-T fluorescence, mean of three wells (Supplementary Fig. 47 source data, measurement M44 of time course): 3.759
Th-T fluorescence, mean of three wells (Supplementary Fig. 47 source data, measurement M45 of time course): 3.771
Th-T fluorescence, mean of three wells (Supplementary Fig. 47 source data, measurement M46 of time course): 3.76
Th-T fluorescence, mean of three wells (Supplementary Fig. 47 source data, measurement M47 of time course): 3.73
Th-T fluorescence, mean of three wells (Supplementary Fig. 47 source data, measurement M48 of time course): 3.764
Th-T fluorescence, mean of three wells (Supplementary Fig. 47 source data, measurement M49 of time course): 3.767
Th-T fluorescence, mean of three wells (Supplementary Fig. 47 source data, measurement M50 of time course): 3.788
Th-T fluorescence, mean of three wells (Supplementary Fig. 47 source data, measurement M51 of time course): 3.755
Th-T fluorescence, mean of three wells (Supplementary Fig. 47 source data, measurement M52 of time course): 3.752
Th-T fluorescence, mean of three wells (Supplementary Fig. 47 source data, measurement M53 of time course): 3.724
Th-T fluorescence, mean of three wells (Supplementary Fig. 47 source data, measurement M54 of time course): 3.756
Th-T fluorescence, mean of three wells (Supplementary Fig. 47 source data, measurement M55 of time course): 3.771
Th-T fluorescence, mean of three wells (Supplementary Fig. 47 source data, measurement M56 of time course): 3.762
Th-T assay plate reading, mean of three wells (Supplementary Fig. 47) (measurement M1): 0.2149
Th-T assay plate reading, mean of three wells (Supplementary Fig. 47) (measurement M2): 0.2276
Th-T assay plate reading, mean of three wells (Supplementary Fig. 47) (measurement M3): 0.2865
Th-T assay plate reading, mean of three wells (Supplementary Fig. 47) (measurement M4): 0.3444
Th-T assay plate reading, mean of three wells (Supplementary Fig. 47) (measurement M5): 0.4109
Th-T assay plate reading, mean of three wells (Supplementary Fig. 47) (measurement M6): 0.436
Th-T assay plate reading, mean of three wells (Supplementary Fig. 47) (measurement M7): 0.4804
Th-T assay plate reading, mean of three wells (Supplementary Fig. 47) (measurement M8): 0.5318
Th-T assay plate reading, mean of three wells (Supplementary Fig. 47) (measurement M9): 0.5868
Th-T assay plate reading, mean of three wells (Supplementary Fig. 47) (measurement M10): 0.6365
Th-T assay plate reading, mean of three wells (Supplementary Fig. 47) (measurement M11): 0.7058
Th-T assay plate reading, mean of three wells (Supplementary Fig. 47) (measurement M12): 0.8261
Th-T assay plate reading, mean of three wells (Supplementary Fig. 47) (measurement M13): 1.145
Th-T assay plate reading, mean of three wells (Supplementary Fig. 47) (measurement M14): 1.723
Th-T assay plate reading, mean of three wells (Supplementary Fig. 47) (measurement M15): 2.352
Th-T assay plate reading, mean of three wells (Supplementary Fig. 47) (measurement M16): 2.814
Th-T fluorescence, mean of three wells (reading M17, Supplementary Fig. 47 source data): 3.101
Th-T fluorescence, mean of three wells (reading M18, Supplementary Fig. 47 source data): 3.246
Th-T fluorescence, mean of three wells (reading M19, Supplementary Fig. 47 source data): 3.285
Th-T fluorescence, mean of three wells (reading M20, Supplementary Fig. 47 source data): 3.357
Th-T fluorescence, mean of three wells (reading M21, Supplementary Fig. 47 source data): 3.385
Th-T fluorescence, mean of three wells (reading M22, Supplementary Fig. 47 source data): 3.422
Th-T fluorescence, mean of three wells (reading M23, Supplementary Fig. 47 source data): 3.453
Th-T fluorescence, mean of three wells (reading M24, Supplementary Fig. 47 source data): 3.499
Th-T fluorescence, mean of three wells (reading M25, Supplementary Fig. 47 source data): 3.518
Th-T fluorescence, mean of three wells (reading M26, Supplementary Fig. 47 source data): 3.525
Th-T fluorescence, mean of three wells (reading M27, Supplementary Fig. 47 source data): 3.564
Th-T fluorescence, mean of three wells (reading M28, Supplementary Fig. 47 source data): 3.572
Th-T fluorescence, mean of three wells (reading M29, Supplementary Fig. 47 source data): 3.591
Th-T fluorescence, mean of three wells (reading M30, Supplementary Fig. 47 source data): 3.63
Th-T fluorescence, mean of three wells (reading M31, Supplementary Fig. 47 source data): 3.6544
Th-T fluorescence, mean of three wells (reading M32, Supplementary Fig. 47 source data): 3.711
Th-T fluorescence, mean of three wells (reading M33, Supplementary Fig. 47 source data): 3.704
Th-T fluorescence, mean of three wells (reading M34, Supplementary Fig. 47 source data): 3.671
Th-T fluorescence, mean of three wells (reading M35, Supplementary Fig. 47 source data): 3.708
Th-T fluorescence, mean of three wells (reading M36, Supplementary Fig. 47 source data): 3.706
Th-T fluorescence, mean of three wells (time course, reading M57): 3.709
Th-T fluorescence, mean of three wells (time course, reading M58): 3.763
Th-T fluorescence, mean of three wells (time course, reading M59): 3.775
Th-T fluorescence, mean of three wells (time course, reading M60): 3.734
Th-T fluorescence, mean of three wells (time course, reading M61): 3.716
Th-T fluorescence, mean of three wells (time course, reading M62): 3.783
Th-T fluorescence, mean of three wells (time course, reading M63): 3.7203
Th-T fluorescence, mean of three wells (time course, reading M64): 3.6972
Th-T fluorescence, mean of three wells (time course, reading M65): 3.735
Th-T fluorescence, mean of three wells (time course, reading M66): 3.755
Th-T fluorescence, mean of three wells (time course, reading M67): 3.725
Th-T fluorescence, mean of three wells (time-course reading M97, Supplementary Fig. 47 source data): 3.595
Th-T fluorescence, mean of three wells (time-course reading M98, Supplementary Fig. 47 source data): 3.647
Th-T fluorescence, mean of three wells (time-course reading M99, Supplementary Fig. 47 source data): 3.679
Th-T fluorescence, mean of three wells (time-course reading M100, Supplementary Fig. 47 source data): 3.653
Th-T fluorescence, mean of three wells (time-course reading M101, Supplementary Fig. 47 source data): 3.662
Th-T fluorescence, mean of three wells (time-course reading M102, Supplementary Fig. 47 source data): 3.581
Th-T fluorescence, mean of three wells (time-course reading M103, Supplementary Fig. 47 source data): 3.611
Th-T fluorescence, mean of three wells (time-course reading M104, Supplementary Fig. 47 source data): 3.626
Th-T fluorescence, mean of three wells (time-course reading M105, Supplementary Fig. 47 source data): 3.605
Th-T fluorescence, mean of three wells (time-course reading M106, Supplementary Fig. 47 source data): 3.616
Th-T fluorescence, mean of three wells (time-course reading M107, Supplementary Fig. 47 source data): 3.656
Th-T fluorescence, mean of three wells (time-course reading M108, Supplementary Fig. 47 source data): 3.6
Th-T fluorescence, mean of three wells (time-course reading M109, Supplementary Fig. 47 source data): 3.632
Th-T fluorescence, mean of three wells (time-course reading M110, Supplementary Fig. 47 source data): 3.606
Th-T fluorescence, mean of three wells (time-course reading M111, Supplementary Fig. 47 source data): 3.628
Th-T fluorescence, mean of three wells (time-course reading M112, Supplementary Fig. 47 source data): 3.629
Th-T fluorescence, mean of three wells (time-course reading M113, Supplementary Fig. 47 source data): 3.58
Th-T fluorescence, mean of three wells (time-course reading M114, Supplementary Fig. 47 source data): 3.62
Th-T fluorescence, mean of three wells (time-course reading M115, Supplementary Fig. 47 source data): 3.596
Th-T fluorescence, mean of three wells (time-course reading M116, Supplementary Fig. 47 source data): 3.5953
